# Assay results published in article PMC12888861, “Antibacterial activity of enmetazobactam against Acinetobacter spp.: a molecular dissection of mechanism of action and resistance determinants” (Antimicrobial Agents and Chemotherapy, 2025).
# Like-named read-outs stand apart in the source and are kept apart here.
# Experiments:
# [1] = tested on: A. non-baumannii isolates (n = 87); test: MIC, broth microdilution (EUCAST), A. non-baumannii isolates; assay type: cell-based, Acinetobacter spp. (non-baumannii); details: for MIC: in combinations ETZ fixed at 8 mg/L, read-out: MIC
# Description: The bacterial strains used in this study comprised 208 clinical isolates from the Spanish National Acinetobacter spp. 2020 Multicenter Collection, which was previously characterized in detail by our research group, including whole-genome sequencing, phylogenetics studies, clonal dynamics, and resistance mechanisms ([2], [29]). Additionally, a collection of A. baumannii ATCC 17978 transformants coding the blaOXA-23, blaOXA-24/40, blaOXA-51, blaOXA-58, blaOXA-143, and blaOXA-201 genes, previously constructed and described by our group ([30]), was used to determine the activity of enmetazobactam against strains carrying the main CHDLs of A. baumannii.
# The antimicrobial susceptibility of the 208 Acinetobacter spp. isolates was assessed using the broth microdilution method, as described in the European Committee on Antimicrobial Susceptibility Testing (EUCAST) v.15 guidelines (http://www.eucast.org/clinical_breakpoints). […] MICs for enmetazobactam alone were assessed as well. […] Subsequently, MIC testing was also conducted with a collection of A. baumannii ATCC 17978 transformants expressing clinically relevant OXA-like carbapenemase genes.
# The A. baumannii ATCC 19606 strain was used as the reference strain in all susceptibility experiments, in duplicate assays. Antibiotics were purchased from Sigma-Aldrich, except enmetazobactam and durlobactam, which were obtained from Advanz Pharma and MedChemExpress, respectively.
# [2] = tested on: A. baumannii ATCC 19606 cells; test: Cell morphology assay, bright-field microscopy; assay type: cell-based, Acinetobacter baumannii; details: A. baumannii ATCC 19606, overnight exposure at 1× MIC
# Experimental: In order to confirm the involvement of PBPs as targets of enmetazobactam, cell morphology assays involving exposure to enmetazobactam and sulbactam were performed following the methodology described in Supplementary materials and methods.
# To confirm the involvement of PBPs as targets of enmetazobactam, the cellular morphology of A. baumannii ATCC 19606 reference strain was analyzed after exposure to the compound at different concentrations. Bright-field microscopy was used to monitor the cell morphology. […] For microscopic visualization, aliquots of each sample were obtained, stained with crystal violet solution and observed using an Olympus BX61 microscope (Olympus).
# Changes in cell morphology were determined on the basis of alterations in septal integrity, abnormal elongation, spheroplast formation and filamentation, patterns previously associated with the selective inhibition of PBP1, PBP2 and PBP3 in Gram-negative bacilli. Specifically, PBP1 inhibition has been linked to cell lysis, PBP2 inhibition has been linked to spherification, and PBP3 inhibition to defective cell division and filament formation (1, 2). The results were qualitatively compared across different treatments to infer the potential selectivity of enmetazobactam for specific PBPs.
# [3] = Acinetobacter, A. non-baumannii isolates (n=87), ETZ fixed 8 mg/L in combinations
compound,measurement,setting,value
C[C@@H](O)[C@H]1C(=O)N2C(C(=O)O)=C(SCCN=CN)C[C@H]12 [imipenem],MIC,"[1]; Acinetobacter pittii, isolate NO-Ab97, Acinetobacter pittii",≤ 0.06 µg/mL
same,MIC,"[1]; Acinetobacter pittii, isolate NO-Ab105, Acinetobacter pittii",0.12 µg/mL
same,MIC,"[1]; Acinetobacter pittii, isolate NO-Ab106, Acinetobacter pittii",≤ 0.06 µg/mL
same,MIC,"[1]; Acinetobacter pittii, isolate NO-Ab107, Acinetobacter pittii",≤ 0.06 µg/mL
same,MIC,"[1]; Acinetobacter pittii, isolate NO-Ab111, Acinetobacter pittii",0.12 µg/mL
same,MIC,"[1]; Acinetobacter pittii, isolate NO-Ab113, Acinetobacter pittii",0.25 µg/mL
same,MIC,"[1]; Acinetobacter pittii, isolate NO-Ab118, Acinetobacter pittii",0.12 µg/mL
same,MIC,"[1]; Acinetobacter pittii, isolate NO-Ab135, Acinetobacter pittii",0.12 µg/mL
same,MIC,"[1]; Acinetobacter pittii, isolate NO-Ab145, Acinetobacter pittii",0.12 µg/mL
same,MIC,"[1]; Acinetobacter pittii, isolate NO-Ab151, Acinetobacter pittii",0.25 µg/mL
same,MIC,"[1]; Acinetobacter pittii, isolate NO-Ab154, Acinetobacter pittii",0.25 µg/mL
same,MIC,"[1]; Acinetobacter pittii, isolate NO-Ab157, Acinetobacter pittii",0.25 µg/mL
same,MIC,"[1]; Acinetobacter pittii, isolate NO-Ab162, Acinetobacter pittii",0.12 µg/mL
same,MIC,"[1]; Acinetobacter pittii, isolate NO-Ab164, Acinetobacter pittii",≤ 0.06 µg/mL
same,MIC,"[1]; Acinetobacter pittii, isolate NO-Ab178, Acinetobacter pittii",0.12 µg/mL
same,MIC,"[1]; Acinetobacter pittii, isolate NO-Ab197, Acinetobacter pittii",0.12 µg/mL
same,MIC,"[1]; Acinetobacter proteolyticus, isolate NO-Ab99, Acinetobacter proteolyticus",0.25 µg/mL
same,MIC,"[1]; Acinetobacter proteolyticus, isolate NO-Ab102, Acinetobacter proteolyticus",0.25 µg/mL
same,MIC,"[1]; Acinetobacter proteolyticus, isolate NO-Ab210, Acinetobacter proteolyticus",≤ 0.06 µg/mL
same,MIC,"[1]; Acinetobacter radioresistens, isolate NO-Ab175, Acinetobacter radioresistens",0.25 µg/mL
same,MIC,"[1]; Acinetobacter radioresistens, isolate NO-Ab215, Acinetobacter radioresistens",0.12 µg/mL
same,MIC,"[1]; Acinetobacter ursingii, isolate NO-Ab3, Acinetobacter ursingii",≤ 0.06 µg/mL
same,MIC,"[1]; Acinetobacter ursingii, isolate NO-Ab64, Acinetobacter ursingii",≤ 0.06 µg/mL
same,MIC,"[1]; Acinetobacter ursingii, isolate NO-Ab87, Acinetobacter ursingii",≤ 0.06 µg/mL
same,MIC,"[1]; Acinetobacter ursingii, isolate NO-Ab103, Acinetobacter ursingii",≤ 0.06 µg/mL
same,MIC,"[1]; Acinetobacter ursingii, isolate NO-Ab119, Acinetobacter ursingii",0.25 µg/mL
same,MIC,"[1]; Acinetobacter ursingii, isolate NO-Ab120, Acinetobacter ursingii",≤ 0.06 µg/mL
same,MIC,"[1]; Acinetobacter ursingii, isolate NO-Ab123, Acinetobacter ursingii",≤ 0.06 µg/mL
same,MIC,"[1]; Acinetobacter ursingii, isolate NO-Ab126, Acinetobacter ursingii",0.12 µg/mL
same,MIC,"[1]; Acinetobacter ursingii, isolate NO-Ab147, Acinetobacter ursingii",0.25 µg/mL
same,MIC,"[1]; Acinetobacter ursingii, isolate NO-Ab155, Acinetobacter ursingii",0.25 µg/mL
same,MIC,"[1]; Acinetobacter ursingii, isolate NO-Ab165, Acinetobacter ursingii",0.12 µg/mL
same,MIC,"[1]; Acinetobacter ursingii, isolate NO-Ab166, Acinetobacter ursingii",≤ 0.06 µg/mL
same,MIC,"[1]; Acinetobacter ursingii, isolate NO-Ab214, Acinetobacter ursingii",≤ 0.06 µg/mL
same,MIC,"[1]; Acinetobacter ursingii, isolate NO-Ab221, Acinetobacter ursingii",≤ 0.06 µg/mL
same,MIC,"[1]; Acinetobacter ursingii, isolate NO-Ab222, Acinetobacter ursingii",≤ 0.06 µg/mL
same,MIC,"[1]; Acinetobacter, isolate NO-Ab146, Acinetobacter iwoffii",0.25 µg/mL
same,MIC,"[1]; Acinetobacter, isolate NO-Ab159, Acinetobacter iwoffii",≤ 0.06 µg/mL
same,MIC50,[1]; [3],0.12 µg/mL
same,MIC90,[1]; [3],0.25 µg/mL
same,MIC distribution 0.25,"[1]; cumulative share of A. non-baumannii isolates (n=87) at MIC 0.25 mg/L, ETZ fixed 8 mg/L in combinations",96.6
same,MIC distribution 0.5,"[1]; cumulative share of A. non-baumannii isolates (n=87) at MIC 0.5 mg/L, ETZ fixed 8 mg/L in combinations",97.7
same,MIC distribution 1,"[1]; cumulative share of A. non-baumannii isolates (n=87) at MIC 1 mg/L, ETZ fixed 8 mg/L in combinations",97.7
same,MIC distribution 2,"[1]; cumulative share of A. non-baumannii isolates (n=87) at MIC 2 mg/L, ETZ fixed 8 mg/L in combinations",97.7
same,MIC distribution 4,"[1]; cumulative share of A. non-baumannii isolates (n=87) at MIC 4 mg/L, ETZ fixed 8 mg/L in combinations",97.7
same,MIC distribution 8,"[1]; cumulative share of A. non-baumannii isolates (n=87) at MIC 8 mg/L, ETZ fixed 8 mg/L in combinations",97.7
same,MIC distribution 16,"[1]; cumulative share of A. non-baumannii isolates (n=87) at MIC 16 mg/L, ETZ fixed 8 mg/L in combinations",97.7
same,MIC distribution 32,"[1]; cumulative share of A. non-baumannii isolates (n=87) at MIC 32 mg/L, ETZ fixed 8 mg/L in combinations",100
same,MIC distribution ≤0.06,"[1]; cumulative share of A. non-baumannii isolates (n=87) at MIC ≤0.06 mg/L, ETZ fixed 8 mg/L in combinations",32.2
same,cell morphology,[2],rounded and spherical cells
